Experimental findings from article PMC4774534 (Antiviral Research, 2015) are described below.

Where a name gives a salt, the structure may show the parent alone. Read-outs that look alike come from different tables or passages of the source.

Experiment [1] has as its system SARS-CoV S pseudotyped virus on 293T-ACE2 cells. Format: cell-based. Conditions: read-out: HIV-luc (SARS-CoV S) IC50.
Experiment [2] relates to EBOV pseudotyped virus on 293T-ACE2 cells. Format: cell-based. Conditions: read-out: HIV-luc (EBOV GP) IC50.
The test system of experiment [3] is VSV-G pseudovirus on 293T-CD13 cells transiently expressing TMPRSS2. Format: cell-based.
The subject of experiment [4] is Ebola pseudovirus on 293T-CD13 cells transiently expressing TMPRSS2. Format: cell-based, EBOV.
For experiment [5], the system named is SARS-CoV Urbani strain in Vero 76 cells. Format: cell-based. Conditions: read-out: Neutral red (NR) assay IC50.
Experiment [6] deals with replication competent SARS-CoV (Urbani and Toronto-2). Format: cell-based.
The test system of experiment [7] is SARS-CoV Toronto-2 strain in Vero 76 cells. Format: cell-based. Conditions: read-out: CPE inhibition IC50.
For experiment [8] the test system is unchanged. Format: cell-based. The following applies: read-out: Neutral red (NR) assay IC50.
The test system of experiment [9] is SARS-CoV Urbani strain in Vero 76 cells. Format: cell-based. The following applies: read-out: Virus yield reduction IC90.
The test system is the same in experiment [10]. Format: cell-based. Conditions: read-out: CPE inhibition IC50.
Experiment [11] has as its system SARS-CoV Toronto-2 strain in Vero 76 cells. Format: cell-based. Conditions: read-out: Virus yield reduction IC90.

In general, IC50 refers to the point on the concentration scale where inhibition reaches its midpoint. A word on the IC90: it is the concentration at which the effect reaches the 90% level.

Consider `CC(C)N1CCN(C(=O)N[C@@H](Cc2ccccc2)C(=O)N[C@H](/C=C/S(=O)(=O)c2ccccc2)CCc2ccccc2)CC1` [SMDC-256123, (2S)-N-[(1E,3S)-1-(benzenesulfonyl)-5-phenylpent-1-en-3-yl]-2-{[(E)-4-(propan-2-yl)piperazine-1-carbonyl]amino}-3-phenylpropanamide], for which the IC50 in experiment [1] is 0.11 ± 0.01 nM; in experiment [2], 0.25 ± 0.07 nM.

As to `O=C(N[C@H](/C=C/S(=O)(=O)c1ccccc1)CCc1ccccc1)[C@H](Cc1ccccc1)NC(=O)N1CCN(CC2CC2)CC1` [SMDC-256162, (2S)-N-[(1E,3S)-1-(benzenesulfonyl)-5-phenylpent-1-en-3-yl]-2-{[(E)-4-(cyclopropylmethyl)piperazine-1-carbonyl]amino}-3-phenylpropanamide], the IC50 in experiment [1] stood at 0.16 ± 0.03 nM; in experiment [2] it was 0.1 ± 0.01 nM.

Regarding `O=C(N[C@H](/C=C/S(=O)(=O)c1ccccc1)CCc1ccccc1)[C@H](Cc1ccccc1)NC(=O)N1CCN(c2ccccc2)CC1` [SMDC-256158, (2S)-N-[(1E,3S)-1-(benzenesulfonyl)-5-phenylpent-1-en-3-yl]-2-{[(E)-4-phenylpiperazine-1-carbonyl]amino}-3-phenylpropanamide], the half-maximal inhibitory concentration (IC50) in [1] worked out at 2.49 ± 0.34 nM; in [2] it was 2.69 ± 0.43 nM.

`O=C(N[C@H](/C=C/S(=O)(=O)c1ccccc1)CCc1ccccc1)[C@H](Cc1ccccc1)NC(=O)N1CCN(C2CCCC2)CC1` [SMDC-256161, (2S)-N-[(1E,3S)-1-(benzenesulfonyl)-5-phenylpent-1-en-3-yl]-2-{[(E)-4-cyclopentylpiperazine-1-carbonyl]amino}-3-phenylpropanamide]: the half-maximal inhibitory concentration (IC50) in [1] was 0.25 ± 0.16 nM; in [2] it was 0.18 ± 0.01 nM.

For the compound `CN(C)C(=O)COC(=O)Cc1ccc(OC(=O)c2ccc(NC(=N)N)cc2)cc1` [camostat, camostat mesylate], in [3], the “effect on VSV-G driven viral entry” value is “no impact”. The “effect on Ebola pseudovirus infection” value in experiment [4] was “no impact”.

On to `CCCN1CCN(C(=O)N[C@@H](Cc2ccccc2)C(=O)N[C@H](/C=C/S(=O)(=O)c2ccccc2)CCc2ccccc2)CC1` [SMDC-256157, (2S)-N-[(1E,3S)-1-(benzenesulfonyl)-5-phenylpent-1-en-3-yl]-2-{[(E)-4-propylylpiperazine-1-carbonyl]amino}-3-phenylpropanamide], for which the IC50 was determined as 0.24 ± 0.03 nM in experiment [1] and 0.42 ± 0.03 nM in [2].

Take `CCN1CCN(C(=O)N[C@@H](Cc2ccccc2)C(=O)N[C@H](/C=C/S(=O)(=O)c2ccccc2)CCc2ccccc2)CC1` [SMDC-256122, (2S)-N-[(1E,3S)-1-(benzenesulfonyl)-5-phenylpent-1-en-3-yl]-2-{[(E)-4-ethylpiperazine-1-carbonyl]amino}-3-phenylpropanamide]: the IC50 in [1] turned out to be 0.04 ± 0.01 nM; in experiment [2], 0.12 ± 0.01 nM.

On to `COCCN1CCN(C(=O)N[C@@H](Cc2ccccc2)C(=O)N[C@H](/C=C/S(=O)(=O)c2ccccc2)CCc2ccccc2)CC1` [SMDC-256159, (2S)-N-[(1E,3S)-1-(benzenesulfonyl)-5-phenylpent-1-en-3-yl]-2-{[(E)-4-(2-methoxyethyl)piperazine-1-carbonyl]amino}-3-phenylpropanamide], for which the 50% inhibitory concentration (IC50) in experiment [5] is less than 2260 nM; in [7], less than 480 nM; in experiment [8] it was 650 nM; in experiment [1], 0.07 ± 0.02 nM; in experiment [10], 650 ± 810 nM; in experiment [2], 0.16 ± 0.02 nM. Moreover, the “90% reduction in viral yields, range over strains” value in experiment [6] was less than 0.48 to 7.1 µM. For the same compound, the concentration for an effect of 90% (IC90) in experiment [9] amounted to 7100 ± 7600 nM.

Take “(2S)-N-[(1E,3S)-1-(benzenesulfonyl)-5-phenylpent-1-en-3-yl]-2-{[(E)-4-tert-butylpiperazine-1-carbonyl]amino}-3-phenylpropanamide [SMDC-256160]”: the figures for the concentration for an effect of 90% (IC90) in experiment [11] and in experiment [9] were 12200 nM and 490 nM, respectively. The IC50 was less than 130 nM in experiment [5]; 50 to 320 nM in experiment [6] (read-out: IC50 values, range over strains and readouts); less than 50 nM in experiment [7]; 320 nM in [8]; 0.08 ± 0.01 nM in experiment [1]; less than 80 nM in experiment [10]. For the same compound, in experiment [2], the IC50 came out at 0.11 ± 0.03 nM. In experiment [6], the “90% reduction in viral yields, range over strains” value lay in the range of 0.49 to 12.2 µM.
